{
  "source": "patent US5693524A",
  "about": "“Anticoccidial composition of UK-61 689 and Actinomadura mycelium” (Pfizer Inc., priority 1995, dated 1997)",
  "key": {"[1]": {"tested_on": "coccidiosis", "settings": "EP application 169011; cited from earlier work"}, "[2]": {"tested_on": "Eimeria tenella", "test": "Efficacy against coccidial infection in chickens, Eimeria tenella (lesion scores 0 to 4)", "settings": "in diet at levels of 15 to 120 ppm"}, "[3]": {"tested_on": "Actinomyces pyogenes", "test": "In vitro minimal inhibitory concentration (MIC), Actinomyces pyogenes", "format": "cell-based", "settings": "24 hours"}, "[4]": {"tested_on": "E. maxima", "test": "Efficacy against coccidial infection in chickens, E. maxima (lesion scores 0 to 3)", "settings": "in diet at levels of 15 to 120 ppm"}, "[5]": {"tested_on": "Gram-positive microorganisms", "test": "Inhibitory action against growth of Gram-positive microorganisms in vitro", "format": "cell-based", "description": "In Table I, below, the results of in vitro tests are summarized. For this test each organism is inoculated in a series of test tubes containing nutrient medium and varying concentrations of Antibiotic UK-61,689 to determine the minimal concentration of the compound in g/ml which inhibits the growth of the organism over a period of 24 hours (MIC)."}, "[6]": {"tested_on": "Treponema hyodysenteriae", "test": "In vitro minimal inhibitory concentration (MIC), Treponema hyodysenteriae", "format": "cell-based"}, "[7]": {"tested_on": "E. necatrix", "test": "Efficacy against coccidial infection in chickens, E. necatrix (lesion scores 0 to 3)", "settings": "in diet at levels of 15 to 120 ppm"}, "[8]": {"tested_on": "E. acervulina", "test": "Efficacy against coccidial infection in chickens, E. acervulina (lesion scores 0 to 3)", "settings": "in diet at levels of 15 to 120 ppm, evaluated after five days"}, "[9]": {"tested_on": "coccidial infections in poultry", "test": "Activity against coccidial infections in poultry (lesion scores)"}, "[10]": {"tested_on": "Clostridium perfringens", "test": "microbe, parasite or virus in culture", "format": "cell-based", "settings": "24 h"}, "[11]": {"tested_on": "E. brunetti", "test": "Efficacy against coccidial infection in chickens, E. brunetti (lesion scores 0 to 3)", "settings": "in diet at levels of 15 to 120 ppm"}},
  "note": "Like-named read-outs stand apart in the source and are kept apart here.",
  "data": [
    {"smiles": "COC1CCC(OC2CC(C3OC(C)(O)C(C)CC3C)OC2C2(C)CCC(C3(C)CCC4(CC(O)C(C)C(C(C)C5OC(O)(CC(=O)O)C(C)C(OC6CCC(OC)C(C)O6)C5OC)O4)O3)O2)OC1C", "note": "(stereo not shown) [UK-58,852]", "values": [
      {"measurement": "antibiotic / anticoccidial effectiveness", "setting": "[1]", "value": "effective antibiotic, especially anticoccidial agent"}
    ]},
    {"smiles": "COC1CCC(OC2CC(C3OC(C)(O)C(C)CC3C)OC2C2(C)CCC(C3(C)CCC4(CC(O)C(C)C(C(C)C5OC(O)(CC(=O)O)C(C)C(O)C5OC)O4)O3)O2)OC1C", "note": "(stereo not shown) [UK-61,689]", "values": [
      {"measurement": "controlling infections due to Eimeria tenella", "setting": "[2]", "value": "effective in controlling infections"},
      {"measurement": "MIC", "setting": "[3]; Actinomyces pyogenes strain 14D008", "value": 50, "unit": "µg/mL"},
      {"measurement": "MIC", "setting": "[3]; Actinomyces pyogenes strain 14D011", "value": 50, "unit": "µg/mL"},
      {"measurement": "MIC", "setting": "[3]; Trueperella pyogenes, Actinomyces pyogenes strain 14D002, read-out: MIC", "value": 50, "unit": "µg/mL"},
      {"measurement": "controlling infections due to E. maxima", "setting": "[4]", "value": "effective in controlling infections"},
      {"measurement": "inhibitory action against the growth of Gram-positive microorganisms", "setting": "[5]", "value": "exhibits inhibitory action against the growth of a number of Gram-positive microorganisms"},
      {"measurement": "MIC", "setting": "[6]; Brachyspira hyodysenteriae, 24 h, Treponema hyodysenteriae strain 94A001", "value": 3.12, "unit": "µg/mL"},
      {"measurement": "MIC", "setting": "[6]; Brachyspira hyodysenteriae, 24 h, Treponema hyodysenteriae strain 94A002", "value": 3.12, "unit": "µg/mL"},
      {"measurement": "MIC", "setting": "[6]; Brachyspira hyodysenteriae, Treponema hyodysenteriae strain 94A007, 24 hours, read-out: MIC", "value": 1.56, "unit": "µg/mL"},
      {"measurement": "MIC", "setting": "[6]; Treponema hyodysenteriae strain 94A008, 24 hours", "value": 1.56, "unit": "µg/mL"},
      {"measurement": "controlling infections due to E. necatrix", "setting": "[7]", "value": "effective in controlling infections"},
      {"measurement": "controlling infections due to E. acervulina", "setting": "[8]", "value": "effective in controlling infections"},
      {"measurement": "activity against coccidial infections in poultry", "setting": "[9]", "value": "excellent activity"},
      {"measurement": "MIC", "setting": "[10]; Clostridium perfringens strain 10A006", "value": 50, "unit": "µg/mL"},
      {"measurement": "MIC", "setting": "[10]; Clostridium perfringens strain 10A009", "value": 12.5, "unit": "µg/mL"},
      {"measurement": "controlling infections due to E. brunetti", "setting": "[11]", "value": "effective in controlling infections"}
    ]},
    {"smiles": "COC1CCC(OC2CC(C3OC(C)(OC)C(C)CC3C)OC2C2(C)CCC(C3(C)CCC4(CC(OC)C(C)C(C(C)C5OC(O)(CC(=O)O)C(C)C(OC6CCC(OC)C(C)O6)C5OC)O4)O3)O2)OC1C", "note": "(stereo not shown) [CP-70,828]", "values": [
      {"measurement": "antibiotic / anticoccidial effectiveness", "setting": "[1]", "value": "antibiotically effective in controlling coccidiosis"}
    ]},
    {"smiles": "COC1CCC(OC2CC(C3OC(C)(OC)C(C)CC3C)OC2C2(C)CCC(C3(C)CCC4(CC(O)C(C)C(C(C)C5OC(O)(CC(=O)O)C(C)C(OC6CCC(OC)C(C)O6)C5OC)O4)O3)O2)OC1C", "note": "(stereo not shown) [CP-70,228]", "values": [
      {"measurement": "antibiotic / anticoccidial effectiveness", "setting": "[1]", "value": "antibiotically effective in controlling coccidiosis"}
    ]}
  ]
}
